IC50 and EC50 data for 39 compounds are collected here from patent publication US10307413B2, “Tetrahydro- and dihydro-isoquinoline PRMT5 inhibitors and uses thereof” (Epizyme, Inc., priority 2013, dated 2019).

For experiment [1], the target named is PRMT5/MEP50 (Homo sapiens (Human), UniProt O14744). As to the kind of experiment: PRMT5 Biochemical Assay (PRMT5/MEP50 enzyme assay on peptide substrate, 3H-SAM Flashplate). The text has this: S-adenosylmethionine (SAM), S-adenosylhomocysteine (SAH), bicine, KCl, Tween20, dimethylsulfoxide (DMSO), bovine skin gelatin (BSG), and Tris(2-carboxyethyl)phosphine hydrochloride solution (TCEP) were purchased from Sigma-Aldrich at the highest level of purity possible. ^3H-SAM was purchase from American Radiolabeled Chemicals with a specific activity of 80 Ci/mmol. 384-well streptavidin Flashplates were purchased from PerkinElmer.
PRMT5/MEP50, sequence (O14744 other isoform, or with tags, fused parts or gaps): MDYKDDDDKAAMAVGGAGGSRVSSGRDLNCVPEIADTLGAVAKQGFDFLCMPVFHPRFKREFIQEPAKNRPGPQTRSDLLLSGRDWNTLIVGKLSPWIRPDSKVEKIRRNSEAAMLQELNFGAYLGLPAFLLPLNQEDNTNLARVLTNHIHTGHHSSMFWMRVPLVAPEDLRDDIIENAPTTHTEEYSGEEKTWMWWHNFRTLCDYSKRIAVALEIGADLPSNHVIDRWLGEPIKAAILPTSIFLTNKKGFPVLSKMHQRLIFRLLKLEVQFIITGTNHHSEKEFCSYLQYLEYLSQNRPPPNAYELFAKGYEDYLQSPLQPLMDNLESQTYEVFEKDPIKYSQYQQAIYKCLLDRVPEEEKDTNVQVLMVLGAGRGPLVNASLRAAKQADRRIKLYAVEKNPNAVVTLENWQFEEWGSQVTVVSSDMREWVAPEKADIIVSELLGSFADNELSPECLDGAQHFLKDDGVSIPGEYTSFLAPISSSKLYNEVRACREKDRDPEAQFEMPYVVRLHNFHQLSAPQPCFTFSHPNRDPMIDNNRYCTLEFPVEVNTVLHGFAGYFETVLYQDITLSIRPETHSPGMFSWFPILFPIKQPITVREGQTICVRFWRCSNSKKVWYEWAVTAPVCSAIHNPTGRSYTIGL
PRMT5/MEP50, sequence (Q9BQA1 other isoform, or with tags, fused parts or gaps partner): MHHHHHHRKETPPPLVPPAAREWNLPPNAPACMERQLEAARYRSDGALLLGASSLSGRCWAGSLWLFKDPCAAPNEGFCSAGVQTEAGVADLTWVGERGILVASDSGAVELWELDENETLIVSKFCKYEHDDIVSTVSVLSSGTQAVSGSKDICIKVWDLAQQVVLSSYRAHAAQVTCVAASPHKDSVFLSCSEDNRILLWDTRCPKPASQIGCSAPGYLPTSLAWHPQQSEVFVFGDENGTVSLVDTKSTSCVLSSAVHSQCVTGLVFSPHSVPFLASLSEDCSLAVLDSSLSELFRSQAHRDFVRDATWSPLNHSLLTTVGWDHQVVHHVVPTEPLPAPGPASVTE
Peptide representative of human histone H4 residues 1-15 was synthesized with a C-terminal linker-affinity tag motif and a C-terminal amide cap by 21st Century Biochemicals.
The amplified genes were sublconed into pENTR/D/TEV (Life Technologies) and subsequently transferred by Gateway™ attL×attR recombination to pDEST8 baculovirus expression vector (Life Technologies).
Protein over-expression was accomplished by infecting exponentially growing Spodoptera frugiperda (SF9) cell culture at 1.2×10^6 cell/ml with a 5000 fold dilution of BIIC stock. Infections were carried out at 27° C. for 72 hours, harvested by centrifugation, and stored at −80° C. for purification.
Flag-PRMT5/6His-MeP50 was eluted with 300 mM Imidazole in the same buffer.
General Procedure for PRMT5/MEP50 Enzyme Assays on Peptide Substrates.
The assays were all performed in a buffer consisting of 20 mM Bicine (pH=7.6), 1 mM TCEP, 0.005% BSG, and 0.002% Tween20, prepared on the day of use. […] DMSO (1 ul) was added to Columns 11, 12, 23, 24, rows A-H for the maximum signal control and 1 ul of SAH, a known product and inhibitor of PRMT5/MEP50, was added to columns 11, 12, 23, 24, rows I-P for the minimum signal control. A cocktail (40 ul) containing the PRMT5/MEP50 enzyme and the peptide was added by Multidrop Combi (Thermo-Fisher). The compounds were allowed to incubate with PRMT5/MEP50 for 30 min at 25 degrees Celsius, then a cocktail (10 ul) containing ^3H-SAM was added to initiate the reaction (final volume=51 ul). […] The assays were stopped by the addition of non-radioactive SAM (10 ul) to a final concentration of 600 uM, which dilutes the ^3H-SAM to a level where its incorporation into the peptide substrate is no longer detectable. 50 ul of the reaction in the 384-well polypropylene plate was then transferred to a 384-well Flashplate and the biotinylated peptides were allowed to bind to the streptavidin surface for at least 1 hour before being washed three times with 0.1% Tween20 in a Biotek ELx405 plate washer. The plates were then read in a PerkinElmer TopCount plate reader to measure the quantity of ^3H-labeled peptide bound to the Flashplate surface, measured as disintegrations per minute (dpm) or alternatively, referred to as counts per minute (cpm).
[formula] [formula] Where dpm=disintegrations per minute, cmpd=signal in assay well, and min and max are the respective minimum and maximum signal controls.
[formula] [formula] Where top and bottom are the normally allowed to float, but may be fixed at 100 or 0 respectively in a 3-parameter fit. The Hill Coefficient normally allowed to float but may also be fixed at 1 in a 3-parameter fit. Y is the % inhibition and X is the compound concentration.

Experiment [2] has as its system symmetric di-methyl arginine in Z-138 cells. As to the kind of experiment: Z-138 Methylation Assay (In Cell Western for symmetric di-methyl arginine and DNA content). It is filed as cell-based. Particulars: Homo sapiens, read-out: ICW EC50. The method, boiled down:
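In-cell western: symmetric di-methyl arginine signal ratioed to DRAQ5 DNA content after 96 h compound exposure of Z-138 cells seeded at 50,000 cells/mL.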

The subject of experiment [3] is Z-138 cell line. The experiment is described as follows: Z-138 Proliferation Assay (Cell Titer Glo, 5 days). In kind it is cell-based. To be noted: Homo sapiens, 120 h, Z-138 cells, 5 days, read-out: Proliferation EC50. A digest of the protocol: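 Viability via CellTiter-Glo luminescence (ATP) after 5-day incubation at 37 °C, 5% CO2. Compounds tested in triplicate, nine 3-fold steps, highest final concentration 20 μM in 0.2% DMSO; 50% inhibitory concentration by 4-parameter fit of normalized curves.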

Where two headings read alike, the source gives them in different places. Bounds are passed on as bounds.

`CS(=O)(=O)Nc1ccccc1C(=O)NCC(O)CN1CCc2ccccc2C1` (centres unmarked) [Compound 27]: in experiment [1], the IC50 lay within 1000 to 10000 nM.

As for `NS(=O)(=O)c1ccccc1C(=O)NCC(O)CN1CCc2ccccc2C1` (centres unmarked) [Compound 33], the IC50 in experiment [1] lay within 1000 to 10000 nM.

Take `O=C(NCC(O)CN1CCc2ccccc2C1)c1cccc(C(=O)N2CCOCC2)c1` (centres unmarked) [Compound 46, N-(3-(3,4-dihydroisoquinolin-2(1H)-yl)-2-hydroxypropyl)-3-(morpholine-4-carbonyl)benzamide]: the IC50 in experiment [1] was 1000 to 10000 nM.

For `CCN(c1cccc(C(=O)NCC(O)CN2CCc3ccccc3C2)c1)C1CCOCC1` (centres unmarked) [Compound 47], the IC50 in experiment [1] was in the range of 101 to 1000 nM. In addition, the EC50 in experiment [2] fell in the range of 101 to 1000 nM.

Take `O=C(NCC(O)CN1CCc2ccccc2C1)c1cccc(OC2CCOCC2)c1` (centres unmarked) [Compound 48]: the IC50 in experiment [1] is 101 to 1000 nM. For the same compound, the EC50 in experiment [2] is 101 to 1000 nM.

As to `CN(c1cccc(C(=O)NCC(O)CN2CCc3ccccc3C2)c1)C1CCOCC1` (centres unmarked) [Compound 49, N-(3-(3,4-dihydroisoquinolin-2(1H)-yl)-2-hydroxypropyl)-3-(methyl(tetrahydro-2H-pyran-4-yl)amino)benzamide], the IC50 in experiment [1] lay in the range of 101 to 1000 nM.

Regarding `O=C(NCC(O)CN1CCc2ccccc2C1)c1cccc(NC2COC2)c1` (centres unmarked) [Compound 50, N-(3-(3,4-dihydroisoquinolin-2(1H)-yl)-2-hydroxypropyl)-3-(oxetan-3-ylamino)benzamide], the IC50 in experiment [1] is 101 to 1000 nM.

As for `O=C(NCC(O)CN1CCc2ccccc2C1)c1cccc(CN2CCOCC2)c1` (centres unmarked) [Compound 51, N-(3-(3,4-dihydroisoquinolin-2(1H)-yl)-2-hydroxypropyl)-3-(morpholinomethyl)benzamide], the IC50 in experiment [1] is 101 to 1000 nM.

For the compound `CC(Nc1cccc(C(=O)NCC(O)CN2CCc3ccccc3C2)c1)C1CCOCC1` (centres unmarked) [Compound 52, N-(3-(3,4-dihydroisoquinolin-2(1H)-yl)-2-hydroxypropyl)-3-((1-(tetrahydro-2H-pyran-4-yl)ethyl)amino)benzamide], the IC50 in experiment [1] fell in the range of 101 to 1000 nM.

As to `CC1(C)CC(Nc2cccc(C(=O)NCC(O)CN3CCc4ccccc4C3)c2)CCO1` (centres unmarked) [Compound 53, N-(3-(3,4-dihydroisoquinolin-2(1H)-yl)-2-hydroxypropyl)-3-((2,2-dimethyltetrahydro-2H-pyran-4-yl)amino)benzamide], the IC50 in experiment [1] is 101 to 1000 nM.

Take `COc1cc(NC2CCOCC2)cc(C(=O)NCC(O)CN2CCc3ccccc3C2)c1` (centres unmarked) [Compound 56]: the IC50 in experiment [1] is 101 to 1000 nM.

Take `O=C(NCC(O)CN1CCc2ccccc2C1)c1cc(NC2CCOCC2)ccc1F` (centres unmarked) [Compound 57, N-(3-(3,4-dihydroisoquinolin-2(1H)-yl)-2-hydroxypropyl)-2-fluoro-5-((tetrahydro-2H-pyran-4-yl)amino)benzamide]: the IC50 in experiment [1] is 101 to 1000 nM.

As for `Cn1nccc1Nc1cc(C(=O)NC[C@H](O)CN2CCc3ccccc3C2)ccn1` [Compound 325], the EC50 was < 100 nM in experiment [2] and 101 to 1000 nM in experiment [3].

`CC(C)(C)c1cc(Nc2cc(C(=O)NC[C@H](O)CN3CCc4ccccc4C3)ccn2)n[nH]1` [Compound 326]: the figures for the EC50 in experiment [2] and in experiment [3] were < 100 nM and 101 to 1000 nM, respectively.

On to `O=C(NC[C@H](O)CN1CCc2ccccc2C1)c1c(O)ccc2ccccc12` [Compound 327], for which the EC50 is 101 to 1000 nM in experiment [2] and > 20000 nM in experiment [3].

Take `O=C(NC[C@H](O)CN1CCc2ccccc2C1)c1ccc2c(c1O)NCCC2` [Compound 328]: the EC50 in experiment [2] is > 1000 nM; in experiment [3], > 20000 nM.

For `COCCN1CCC(Oc2ccc(C(=O)NC[C@H](O)CN3CCc4ccccc4C3)cc2)CC1` [Compound 329], the EC50 was < 100 nM in experiment [2] and 101 to 1000 nM in experiment [3].

Regarding `O=C(NC[C@H](O)CN1CCc2ccccc2C1)c1ccc(OC2CCN(Cc3ccccc3)CC2)cc1` [Compound 330], the EC50 in experiment [2] and in experiment [3] was < 100 nM each time.

Take `O=C(NC[C@H](O)CN1CCc2ccccc2C1)c1ccc(OC2CCN(Cc3ccncc3)CC2)cc1` [Compound 331]: the EC50 in experiment [2] and in experiment [3] was < 100 nM in each case.

As for `COc1cc(C(=O)NC[C@H](O)CN2CCc3ccccc3C2)cc(NC2CCC2)n1` [Compound 332], the EC50 in experiment [2] and in experiment [3] was < 100 nM throughout.

For `CN(c1cc(C(=O)NC[C@H](O)CN2CCc3ccccc3C2)ccn1)C1CCC1` [Compound 333], the EC50 in experiment [2] is < 100 nM; in experiment [3], 101 to 1000 nM.

Take `O=C(NC[C@H](O)CN1CCc2ccccc2C1)c1ccnc(NC2CCCC2)c1` [Compound 334]: the EC50 in experiment [2] and in experiment [3] was < 100 nM throughout.

For the compound `O=C(NC[C@H](O)CN1CCc2ccccc2C1)c1ccnc(NC2CCCCC2)c1` [Compound 335], the EC50 in experiment [2] and in experiment [3] was < 100 nM in each case.

Regarding `O=C(NC[C@@H](O)CN1CCc2ccccc2C1)c1cc(NC2COC2)ncn1` [Compound 336], the EC50 in experiment [2] was in the range of 101 to 1000 nM; in experiment [3], 10000 to 50000 nM.

As for `[2H]C1([2H])Cc2ccccc2C([2H])([2H])N1C[C@@H](O)CNC(=O)c1cc(NC2COC2)ncn1` [Compound 337], the EC50 in experiment [2] was < 100 nM; in experiment [3], 101 to 1000 nM.

As to `COc1c(NC2COC2)ncnc1C(=O)NC[C@H](O)CN1CCc2ccccc2C1` [Compound 338], the IC50 in experiment [1] is 1000 to 10000 nM.

`O=C(NC[C@H](O)CN1CCc2ccccc2C1)c1ccnc(Nc2ccncc2)c1` [Compound 412]: the EC50 is < 100 nM in experiment [2] (In Cell Western methylation) and 101 to 1000 nM in experiment [3] (Cell Titer Glo).

With `CCC(=O)N1CCC(Nc2cc(C(=O)NC[C@H](O)CN3CCc4ccccc4C3)ccn2)CC1` [Compound 454], the IC50 in experiment [1] (PRMT5 biochemical assay) is < 100 nM. Also, the EC50 in experiment [3] (Cell Titer Glo) is < 100 nM.

In the case of `O=C(NC[C@H](O)CN1CCc2ccccc2C1)c1ccnc(NC2CCN(C(=O)C3CCC3)CC2)c1` [Compound 455], in experiment [1] (PRMT5 biochemical assay), the IC50 was < 100 nM. The EC50 in experiment [3] (Cell Titer Glo) was < 100 nM.

Take `CC(NC(=O)c1cc(NC2COC2)ncn1)[C@H](O)CN1CCc2ccccc2C1` (some centres unmarked) [Compound 493]: the IC50 in experiment [1] (PRMT5 biochemical assay) fell in the range of 1000 to 10000 nM. For the same compound, the EC50 in experiment [2] (In Cell Western methylation) is > 1000 nM.

For `CN(C)C(=O)CN1CC(Nc2cc(C(=O)NC[C@H](O)CN3CCc4ccccc4C3)ncn2)C1` [Compound 623], the half-maximal inhibitory concentration (IC50) in experiment [1] (PRMT5 biochemical assay) was < 100 nM. Further, the EC50 in experiment [3] (Cell Titer Glo) lay within 10000 to 50000 nM.

In the case of `NC1=NC(C(=O)NC[C@H](O)CN2CCc3ccccc3C2)=CC2=NC(CO)CN12` (some centres unmarked) [Compound 625], in experiment [1] (PRMT5 biochemical assay), the IC50 is 101 to 1000 nM. Also, the EC50 in experiment [3] (Cell Titer Glo) is > 5000 nM.

As to `CC(=O)N1CCC(Nc2cc(C(=O)NC[C@H](O)CN3Cc4ccccc4C(O)C3)ccn2)CC1` (some centres unmarked) [Compound 680], the IC50 in experiment [1] (PRMT5 biochemical assay) is > 10000 nM. The EC50 in experiment [2] (In Cell Western methylation) is > 1000 nM.

`CC(=O)N1CCC(Nc2cc(C(=O)NC[C@@H](O)CN3CCc4ccccc4C3)ncn2)CC1` [Compound 687]: the EC50 in experiment [2] (In Cell Western methylation) is < 100 nM; in experiment [3] (Cell Titer Glo), 101 to 1000 nM.

Take `CC(=O)N1CCC(Nc2cc(C(=O)NC[C@H](O)CN3Cc4ccccc4C(C)C3)ccn2)CC1` (some centres unmarked) [Compound 695]: in experiment [1] (PRMT5 biochemical assay), the IC50 is > 10000 nM. The EC50 in experiment [2] (In Cell Western methylation) is > 1000 nM.

`CC(=O)N1CCC(Nc2cc(C(=O)NC[C@H](O)CN3Cc4ccccc4CC3C)ccn2)CC1` (some centres unmarked) [Compound 696]: the IC50 in experiment [1] (PRMT5 biochemical assay) is 1000 to 10000 nM. Also, the EC50 in experiment [2] (In Cell Western methylation) lay within 101 to 1000 nM.

For `O=C(NCC(F)CN1CCc2ccccc2C1)c1cc(NC2COC2)ncn1` (centres unmarked) [Compound 697], the IC50 in experiment [1] (PRMT5 biochemical assay) lay in the range of 1000 to 10000 nM. For the same compound, the EC50 in experiment [2] (In Cell Western methylation) is > 1000 nM.

As for `CC(=O)N1CC(Nc2cc(C(=O)NCC(N)CN3CCc4ccccc4C3)ncn2)C1` (centres unmarked) [Compound 699], the IC50 in experiment [1] (PRMT5 biochemical assay) is 101 to 1000 nM.

As to `CC(=O)N1CCC(Nc2cc(C(=O)NCC(N)CN3CCc4ccccc4C3)ncn2)CC1` (centres unmarked) [Compound 701], the IC50 in experiment [1] (PRMT5 biochemical assay) was in the range of 101 to 1000 nM.
